Structures are written as SMILES.

This experiment deals with T1, F508del (Homo sapiens, UniProt P13569, DEL508-508).
T1 construct: expressed in transfected cells
T1 sequence (P13569 with tags, fused parts or gaps DEL508-508): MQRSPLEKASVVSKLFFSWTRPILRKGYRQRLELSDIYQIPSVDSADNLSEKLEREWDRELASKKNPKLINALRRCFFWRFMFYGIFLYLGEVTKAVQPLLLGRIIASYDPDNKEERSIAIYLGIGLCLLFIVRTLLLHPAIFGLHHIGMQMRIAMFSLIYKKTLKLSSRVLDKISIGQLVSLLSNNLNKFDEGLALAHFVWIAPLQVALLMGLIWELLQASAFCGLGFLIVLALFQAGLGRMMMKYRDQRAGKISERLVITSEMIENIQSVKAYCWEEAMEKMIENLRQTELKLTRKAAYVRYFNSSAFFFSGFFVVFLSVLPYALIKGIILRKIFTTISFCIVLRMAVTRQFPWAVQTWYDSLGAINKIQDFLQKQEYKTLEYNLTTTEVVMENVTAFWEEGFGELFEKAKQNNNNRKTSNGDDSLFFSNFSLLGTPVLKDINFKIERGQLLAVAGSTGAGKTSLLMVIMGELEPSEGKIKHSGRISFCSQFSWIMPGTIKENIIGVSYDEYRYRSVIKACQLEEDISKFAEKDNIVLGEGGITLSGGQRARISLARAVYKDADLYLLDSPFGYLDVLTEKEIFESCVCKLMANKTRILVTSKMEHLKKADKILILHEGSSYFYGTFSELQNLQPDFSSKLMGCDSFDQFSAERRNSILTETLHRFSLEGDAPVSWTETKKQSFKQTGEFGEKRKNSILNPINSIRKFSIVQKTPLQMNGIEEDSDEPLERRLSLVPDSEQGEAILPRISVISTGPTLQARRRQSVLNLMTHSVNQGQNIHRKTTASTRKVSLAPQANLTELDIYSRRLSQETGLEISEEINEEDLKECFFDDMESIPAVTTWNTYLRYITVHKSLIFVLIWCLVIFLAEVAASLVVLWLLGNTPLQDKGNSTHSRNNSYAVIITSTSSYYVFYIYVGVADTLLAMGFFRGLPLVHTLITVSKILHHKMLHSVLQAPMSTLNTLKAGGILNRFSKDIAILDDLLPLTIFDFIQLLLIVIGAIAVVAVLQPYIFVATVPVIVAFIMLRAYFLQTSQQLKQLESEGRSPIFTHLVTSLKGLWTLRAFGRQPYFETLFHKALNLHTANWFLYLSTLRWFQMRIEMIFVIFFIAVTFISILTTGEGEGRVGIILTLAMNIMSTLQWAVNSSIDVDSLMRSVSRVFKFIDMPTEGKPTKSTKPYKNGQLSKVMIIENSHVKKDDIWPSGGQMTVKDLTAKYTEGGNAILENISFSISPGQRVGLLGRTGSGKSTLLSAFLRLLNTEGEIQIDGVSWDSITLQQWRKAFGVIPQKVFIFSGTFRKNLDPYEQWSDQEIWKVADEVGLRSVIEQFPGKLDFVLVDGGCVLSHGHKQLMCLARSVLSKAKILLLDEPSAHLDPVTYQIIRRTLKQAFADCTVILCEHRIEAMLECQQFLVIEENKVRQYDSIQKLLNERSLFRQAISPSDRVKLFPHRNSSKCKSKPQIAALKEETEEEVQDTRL
Briefly: Protocol 1: membrane potential optical assay (FLIPR III, voltage sensing dye), identification of potentiator compounds. The following applies: Table 3, compounds of Table 1. The experiment is classed as cell-based. In outline:
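NIH3T3 F508del cells, 27° C × 24 hrs; compound/DMSO pretreat → redistribution dye load → single forskolin addition with Cl⁻ gradient (gluconate-substituted bath, HEPES pH 7.4). FLIPR III membrane-potential fluorescence read.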
As to `COc1ccc(OC)c(-c2ccc(C(=O)NS(=O)(=O)c3ccc[nH]c3=O)c(N3C[C@@H](C)CC3(C)C)n2)c1` [Compound 1752, 6-(2,5-dimethoxyphenyl)-N-[(2-oxo-1H-pyridin-3-yl)sulfonyl]-2-[(4S)-2,2,4-trimethylpyrrolidin-1-yl]pyridine-3-carboxamide], the EC30 entry was “++ (“++” means between 3 uM and 10 uM)”.

For `CCOc1cc(C)cc(-c2ccc(C(=O)NS(=O)(=O)c3ccc[nH]c3=O)c(N3C[C@@H](C)CC3(C)C)n2)n1` [Compound 1745, 6-(6-ethoxy-4-methyl-2-pyridyl)-N-[(2-oxo-1H-pyridin-3-yl)sulfonyl]-2-[(4S)-2,2,4-trimethylpyrrolidin-1-yl]pyridine-3-carboxamide], the EC30 entry is “+++ (“+++” means <3 uM)”.

Take `CCOc1ncc(-c2ccc(C(=O)NS(=O)(=O)c3cccc(N)n3)c(N3C[C@@H](C)CC3(C)C)n2)cc1C` [Compound 1727, N-[(6-amino-2-pyridyl)sulfonyl]-6-(6-ethoxy-5-methyl-3-pyridyl)-2-[(4S)-2,2,4-trimethylpyrrolidin-1-yl]pyridine-3-carboxamide]: the EC30 entry was “+++ (“+++” means <3 uM)”.

Turning to `CC1CN(c2ncccc2C(=O)NS(=O)(=O)c2cccc(Oc3ccc4ccccc4n3)n2)C(C)(C)C1` (centres unmarked) [Compound 1989, N—[[6-(2-quinolyloxy)-2-pyridyl]sulfonyl]-2-(2,2,4-trimethylpyrrolidin-1-yl)pyridine-3-carboxamide], the EC30 result is recorded as “+++ (“+++” means <3 uM)”.

For `CC(C)COc1cncc(-c2ccc(C(=O)NS(=O)(=O)c3cccc(N)n3)c(N3C[C@@H](C)CC3(C)C)n2)n1` [Compound 1523, N-[(6-amino-2-pyridyl)sulfonyl]-6-(6-isobutoxypyrazin-2-yl)-2-[(4S)-2,2,4-trimethylpyrrolidin-1-yl]pyridine-3-carboxamide], the EC30 result is “+++ (“+++” means <3 uM)”.

On to `CC(C)(C)c1ccc(C(=O)NS(=O)(=O)c2cccc(N)n2)c(OC2CCC2)n1` [Compound 1154, N-[(6-amino-2-pyridyl)sulfonyl]-6-tert-butyl-2-(cyclobutoxy)pyridine-3-carboxamide], for which the EC30 entry is “++ (“++” means between 3 uM and 10 uM)”.

Consider `COc1cc(OC)cc(-c2ccc(C(=O)NS(=O)(=O)c3ccc[nH]c3=O)c(N3C[C@@H](C)CC3(C)C)n2)c1` [Compound 1878, 6-(3,5-dimethoxyphenyl)-N-[(2-oxo-1H-pyridin-3-yl)sulfonyl]-2-[(4S)-2,2,4-trimethylpyrrolidin-1-yl]pyridine-3-carboxamide], for which the EC30 entry is “++ (“++” means between 3 uM and 10 uM)”.

Regarding `CC(=O)C1CC=C(c2ccc(C(=O)NS(=O)(=O)c3cccc(N)n3)c(Oc3c(C)cc(C)cc3C)n2)CC1` (centres unmarked) [Compound 1615, 6-(4-acetylcyclohexen-1-yl)-N-[(6-amino-2-pyridyl)sulfonyl]-2-(2,4,6-trimethylphenoxy)pyridine-3-carboxamide], the EC30 entry was “+++ (“+++” means <3 uM)”.

On to `CC(C)(C)c1ccc(C(=O)NS(=O)(=O)c2cccc(N)n2)c(OC2CC3CCC2C3)n1` (centres unmarked) [Compound 1349, N-[(6-amino-2-pyridyl)sulfonyl]-6-tert-butyl-2-norbornan-2-yloxy-pyridine-3-carboxamide], for which the EC30 entry was “+++ (“+++” means <3 uM)”.

Take `Cc1ccc(-c2ccc(C(=O)NS(=O)(=O)c3cc[nH]n3)c(NCC3(C)CCOCC3)n2)cc1` [Compound 879, 2-[(4-methyltetrahydropyran-4-yl)methylamino]-6-(p-tolyl)-N-(1H-pyrazol-3-ylsulfonyl)pyridine-3-carboxamide]: the EC30 entry is “+ (“+” means greater than 10 uM)”.

Consider `CC1CN(c2ncccc2C(=O)NS(=O)(=O)c2cccc(Nc3cc4ccccc4cn3)n2)C(C)(C)C1` (centres unmarked) [Compound 1933, N—[[6-(3-isoquinolylamino)-2-pyridyl]sulfonyl]-2-(2,2,4-trimethylpyrrolidin-1-yl)pyridine-3-carboxamide], for which the EC30 result is on record as “+++ (“+++” means <3 uM)”.

Turning to `CC(CO)COc1cc(F)cc(-c2ccc(C(=O)NS(=O)(=O)c3ccccc3)c(N3C[C@@H](C)CC3(C)C)n2)c1` (stereo partly drawn) [Compound 1515, N-(benzenesulfonyl)-6-[3-fluoro-5-(3-hydroxy-2-methyl-propoxy)phenyl]-2-[(4S)-2,2,4-trimethylpyrrolidin-1-yl]pyridine-3-carboxamide], the EC30 result was “+++ (“+++” means <3 uM)”.

Consider `CC(C)(C)c1ccc(C(=O)NS(=O)(=O)c2cccc(N)n2)c(C2CCCC2)n1` [Compound 1219, N-[(6-amino-2-pyridyl)sulfonyl]-6-tert-butyl-2-cyclopentyl-pyridine-3-carboxamide], for which the EC30 result is “++ (“++” means between 3 uM and 10 uM)”.

On to `CC(C)COc1cc(F)cc(-c2ccc(C(=O)NS(=O)(=O)c3cccc(N)n3)c(OC(C)Cc3ccccc3)n2)c1` (centres unmarked) [Compound 967, N-[(6-amino-2-pyridyl)sulfonyl]-6-(3-fluoro-5-isobutoxy-phenyl)-2-(1-methyl-2-phenyl-ethoxy)pyridine-3-carboxamide], for which the EC30 result is reported as “+++ (“+++” means <3 uM)”.

On to `CC(C)CC(C)Oc1cccc(-c2ccc(C(=O)NS(=O)(=O)c3cccc(N)n3)c(N3CCCC3(C)C)n2)n1` (centres unmarked) [Compound 846, N-[(6-amino-2-pyridyl)sulfonyl]-6-[6-(1,3-dimethylbutoxy)-2-pyridyl]-2-(2,2-dimethylpyrrolidin-1-yl)pyridine-3-carboxamide], for which the EC30 result is “+++ (“+++” means <3 uM)”.

For the compound `CC(C)COc1cc(F)cc(-c2ccc(C(=O)NS(=O)(=O)c3cccc(N)n3)c(N3CC4C5CCC(C5)C43)n2)c1` (centres unmarked) [Compound 1821, N-[(6-amino-2-pyridyl)sulfonyl]-6-(3-fluoro-5-isobutoxy-phenyl)-2-BLAHyl-pyridine-3-carboxamide], the EC30 entry is “+++ (“+++” means <3 uM)”.

For the compound `Cc1cc(-c2ccc(C(=O)NS(=O)(=O)c3cccnc3N)c(N3C[C@@H](C)CC3(C)C)n2)cnc1OC(C)C` [Compound 1702, N-[(2-amino-3-pyridyl)sulfonyl]-6-(6-isopropoxy-5-methyl-3-pyridyl)-2-[(4S)-2,2,4-trimethylpyrrolidin-1-yl]pyridine-3-carboxamide], the EC30 entry is “+++ (“+++” means <3 uM)”.

For the compound `COc1cccc(-c2ccc(C(=O)NS(=O)(=O)c3ccc[nH]c3=O)c(N3C[C@@H](C)CC3(C)C)n2)c1OC` [Compound 1786, 6-(2,3-dimethoxyphenyl)-N-[(2-oxo-1H-pyridin-3-yl)sulfonyl]-2-[(4S)-2,2,4-trimethylpyrrolidin-1-yl]pyridine-3-carboxamide], the EC30 entry was “++ (“++” means between 3 uM and 10 uM)”.

Consider `CCOc1cccc2c1CN(Cc1c(C)cc(C)cc1C)C2(C)C(=O)NS(=O)(=O)c1cccc(F)c1` (centres unmarked) [Compound 1425, 4-ethoxy-N-(3-fluorophenyl)sulfonyl-1-methyl-2-[(2,4,6-trimethylphenyl)methyl]isoindoline-1-carboxamide], for which the EC30 entry is given as “+++ (“+++” means <3 uM)”.

Take `Cc1cc(Cl)cc(-c2cnc(N3CC(C)CC3(C)C)c(C(=O)NS(=O)(=O)c3cccc(N)n3)c2)c1` (centres unmarked) [Compound 1963, N-[(6-amino-2-pyridyl)sulfonyl]-5-(3-chloro-5-methyl-phenyl)-2-(2,2,4-trimethylpyrrolidin-1-yl)pyridine-3-carboxamide]: the EC30 entry was “+++ (“+++” means <3 uM)”.
